Experimental data: the NIST ThermoML archive (doi:10.1016/j.jct.2015.09.002)
Numbers after ± are expanded uncertainties.

What was measured:
[1] = 93.2 kPa, Liquid, Vibrating tube method
[2] = xn = mol fraction of the nth substance listed; details: 93.2 kPa, Liquid, Vibrating tube method, x1 = 1

Row | Structure (SMILES) | mass density ([1]; 293.15 K) [kg/m3] | mass density ([1]; 298.15 K) [kg/m3] | mass density ([1]; 303.15 K) [kg/m3] | mass density ([1]; 308.15 K) [kg/m3] | mass density ([2]; 293.15 K) [kg/m3] | mass density ([2]; 298.15 K) [kg/m3] | mass density ([2]; 303.15 K) [kg/m3] | mass density ([2]; 308.15 K) [kg/m3]
1 | CCCCN [1-butanamine] | 737.12 ± 2 | 732.33 ± 2 | 727.51 ± 2 | 722.66 ± 2 | – | – | – | –
2 | CC(C)(C)N [2-methyl-2-propanamine] | 692.06 ± 2 | 686.65 ± 2 | 681.18 ± 2 | 675.66 ± 2 | – | – | – | –
3 | CC#N [acetonitrile] | 782.01 ± 2 | 776.61 ± 2 | 771.2 ± 2 | 765.75 ± 2 | – | – | – | –
4 | CC#N [acetonitrile] + CC(C)(C)N | – | – | – | – | 782.01 ± 2 | 776.61 ± 2 | 771.2 ± 2 | 765.75 ± 2
5 | CC#N [acetonitrile] + CCCCN | – | – | – | – | 782.01 ± 2 | 776.61 ± 2 | 771.2 ± 2 | 765.75 ± 2
6 | CC#N [acetonitrile] + CCCCNCCCC | – | – | – | – | 782.01 ± 2 | 776.61 ± 2 | 771.2 ± 2 | 765.75 ± 2
7 | CC#N [acetonitrile] + CCCN | – | – | – | – | 782.01 ± 2 | 776.61 ± 2 | 771.2 ± 2 | 765.75 ± 2
8 | CC#N [acetonitrile] + CCCNCCC | – | – | – | – | 782.01 ± 2 | 776.61 ± 2 | 771.2 ± 2 | 765.75 ± 2
9 | CC#N [acetonitrile] + CCN(CC)CC | – | – | – | – | 782.01 ± 2 | 776.61 ± 2 | 771.2 ± 2 | 765.75 ± 2
10 | CCCCNCCCC [dibutylamine] | 759.7 ± 2 | 755.61 ± 2 | 751.5 ± 2 | 747.38 ± 2 | – | – | – | –
11 | CCCNCCC [dipropylamine] | 738.18 ± 2 | 733.64 ± 2 | 729.07 ± 2 | 724.48 ± 2 | – | – | – | –
12 | CCCN [propan-1-amine] | 716.48 ± 2 | 711.21 ± 2 | 705.88 ± 2 | 700.62 ± 2 | – | – | – | –
13 | CCN(CC)CC [triethylamine] | 727.7 ± 2 | 723.02 ± 2 | 718.36 ± 2 | 713.65 ± 2 | – | – | – | –
